IC50, Activity and inhibition in vivo data for one compound are collected here from ChEMBL document CHEMBL5236560, “Structure-Based Discovery of Potent CARM1 Inhibitors for Solid Tumor and Cancer Immunology Therapy” (J Med Chem, 2021).

The structures appear in SMILES notation.

For data set [1], the target named is Protein arginine N-methyltransferase 3 (Homo sapiens, UniProt O60678). Kind of data set: Inhibition of PRMT3 (unknown origin) incubated for 15 mins measured after 60 min by AlphaLISA assay. (Alpha assays give light when donor and acceptor beads are brought close together.)
Sequence of Protein arginine N-methyltransferase 3 (O60678 whole entry): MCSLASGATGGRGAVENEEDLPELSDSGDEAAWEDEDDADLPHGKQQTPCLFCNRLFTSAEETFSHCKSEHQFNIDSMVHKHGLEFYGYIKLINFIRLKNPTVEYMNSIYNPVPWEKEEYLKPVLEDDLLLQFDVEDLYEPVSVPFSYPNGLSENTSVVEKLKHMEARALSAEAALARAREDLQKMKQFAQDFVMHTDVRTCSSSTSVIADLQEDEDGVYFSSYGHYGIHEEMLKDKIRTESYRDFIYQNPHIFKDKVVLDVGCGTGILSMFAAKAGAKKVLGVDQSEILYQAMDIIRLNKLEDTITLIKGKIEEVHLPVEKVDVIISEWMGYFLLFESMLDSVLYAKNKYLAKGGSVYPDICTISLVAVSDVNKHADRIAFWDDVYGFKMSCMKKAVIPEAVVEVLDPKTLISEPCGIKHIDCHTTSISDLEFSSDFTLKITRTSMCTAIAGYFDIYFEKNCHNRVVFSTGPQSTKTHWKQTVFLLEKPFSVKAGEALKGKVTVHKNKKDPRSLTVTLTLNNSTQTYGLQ
In data set [2] the target is Protein arginine N-methyltransferase 1 (Homo sapiens, UniProt Q99873). Briefly: Inhibition of PRMT1 (unknown origin) incubated for 15 mins measured after 60 min by AlphaLISA assay.
Sequence of Protein arginine N-methyltransferase 1 (Q99873 whole entry): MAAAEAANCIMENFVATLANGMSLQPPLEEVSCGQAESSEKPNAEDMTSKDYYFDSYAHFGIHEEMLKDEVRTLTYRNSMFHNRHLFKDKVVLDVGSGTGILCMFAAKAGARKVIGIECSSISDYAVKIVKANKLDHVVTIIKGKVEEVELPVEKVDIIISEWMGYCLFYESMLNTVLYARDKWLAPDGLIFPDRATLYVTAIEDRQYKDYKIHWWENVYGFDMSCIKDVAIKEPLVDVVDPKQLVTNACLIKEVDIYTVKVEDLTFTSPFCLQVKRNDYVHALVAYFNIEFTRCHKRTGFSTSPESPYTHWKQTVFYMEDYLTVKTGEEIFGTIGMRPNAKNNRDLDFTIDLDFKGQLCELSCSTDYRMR
For data set [3], the system named is BT-549. Kind of data set: Antiproliferative activity against human BT-549 cells assessed as cell growth inhibition incubated for 6 days by SRB assay. The data set is classed as functional, cell-based. The conditions noted are these: BT-549, 144 h. For orientation: In SRB staining, fixed cells bind dye roughly in proportion to their protein.
Data set [4] concerns A-375. Kind of data set: Antiproliferative activity against human A-375 cells assessed as cell growth inhibition incubated for 6 days by SRB assay. The conditions noted are these: A-375, 144 h. It is filed as functional, cell-based.
Data set [5] addresses Protein arginine N-methyltransferase 6 (Homo sapiens, UniProt Q96LA8). Briefly: Inhibition of PRMT6 (unknown origin) incubated for 15 mins measured after 60 min by AlphaLISA assay.
Data set [6] addresses Protein arginine N-methyltransferase 8 (Homo sapiens, UniProt Q9NR22). Kind of data set: Inhibition of PRMT8 (unknown origin) incubated for 15 mins measured after 60 min by AlphaLISA assay.
For data set [7], the target named is Protein arginine N-methyltransferase 5 (Homo sapiens, UniProt O14744). Briefly: Inhibition of PRMT5 (unknown origin) incubated for 15 mins measured after 60 min by AlphaLISA assay.
Sequence of Protein arginine N-methyltransferase 5 (O14744 whole entry): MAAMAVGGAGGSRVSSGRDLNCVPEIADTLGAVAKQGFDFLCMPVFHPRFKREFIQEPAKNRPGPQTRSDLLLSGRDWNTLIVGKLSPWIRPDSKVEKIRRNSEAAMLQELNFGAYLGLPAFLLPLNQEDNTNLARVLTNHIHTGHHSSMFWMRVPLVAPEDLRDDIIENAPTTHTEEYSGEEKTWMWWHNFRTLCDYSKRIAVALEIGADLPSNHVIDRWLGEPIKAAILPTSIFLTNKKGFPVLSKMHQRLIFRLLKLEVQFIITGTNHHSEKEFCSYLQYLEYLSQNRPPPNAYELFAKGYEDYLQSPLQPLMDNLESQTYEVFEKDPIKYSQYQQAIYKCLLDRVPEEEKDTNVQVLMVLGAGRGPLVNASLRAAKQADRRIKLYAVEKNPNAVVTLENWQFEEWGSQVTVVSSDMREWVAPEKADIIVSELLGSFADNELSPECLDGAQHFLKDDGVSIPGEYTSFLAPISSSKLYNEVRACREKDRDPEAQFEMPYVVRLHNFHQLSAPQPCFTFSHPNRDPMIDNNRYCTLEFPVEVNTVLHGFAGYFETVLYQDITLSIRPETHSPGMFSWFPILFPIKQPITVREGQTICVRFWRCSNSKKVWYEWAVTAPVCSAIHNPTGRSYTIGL
In data set [8] the target is T1, Protein arginine N-methyltransferase 7 (Homo sapiens, UniProt Q9NVM4).
T1 sequence (Q9NVM4 whole entry): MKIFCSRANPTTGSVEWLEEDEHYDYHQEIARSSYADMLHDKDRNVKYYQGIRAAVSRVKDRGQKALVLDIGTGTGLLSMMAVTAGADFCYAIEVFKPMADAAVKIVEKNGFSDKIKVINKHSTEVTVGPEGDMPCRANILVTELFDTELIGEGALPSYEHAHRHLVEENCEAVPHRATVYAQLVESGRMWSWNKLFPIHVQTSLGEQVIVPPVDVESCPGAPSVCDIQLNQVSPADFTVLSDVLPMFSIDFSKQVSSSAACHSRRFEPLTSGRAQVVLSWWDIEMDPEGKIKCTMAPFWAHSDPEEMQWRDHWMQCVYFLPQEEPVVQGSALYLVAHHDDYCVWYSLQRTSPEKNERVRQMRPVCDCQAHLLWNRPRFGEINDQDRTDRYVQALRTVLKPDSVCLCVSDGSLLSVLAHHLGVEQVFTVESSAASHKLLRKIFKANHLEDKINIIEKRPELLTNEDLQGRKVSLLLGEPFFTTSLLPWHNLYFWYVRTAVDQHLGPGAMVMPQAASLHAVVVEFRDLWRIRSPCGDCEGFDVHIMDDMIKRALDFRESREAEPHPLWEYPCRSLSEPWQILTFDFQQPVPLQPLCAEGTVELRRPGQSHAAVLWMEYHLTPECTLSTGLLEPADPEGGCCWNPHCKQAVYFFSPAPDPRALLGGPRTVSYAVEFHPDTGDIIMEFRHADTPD
Briefly: Inhibition of PRMT7 (unknown origin) by radioisotope based assay.

The test system of the next data set is MDA-MB-453. Kind of data set: Antiproliferative activity against human MDA-MB-453 cells assessed as cell growth inhibition incubated for 6 days by SRB assay. The data set is classed as functional, cell-based. Particulars: MDA-MB-453, 144 h.
The next data set has as its system SMMC-7721. Kind of data set: Antiproliferative activity against human SMMC-7721 cells assessed as cell growth inhibition incubated for 6 days by SRB assay. The data set is classed as functional, cell-based. The conditions noted are these: SMMC-7721, 144 h.
The subject of data set [9] is ASPC1. Briefly: Antiproliferative activity against human ASPC1 cells assessed as cell growth inhibition incubated for 6 days by SRB assay. It is filed as functional, cell-based. The conditions noted are these: ASPC1, 144 h.
Data set [10] deals with BT-549. Kind of data set: Induction of apoptosis in human BT-549 cells at 15 uM measured after 96 hrs by Annexin V-FITC/PI staining based flow cytometric analysis (reference value: 9.7 %). The data set is classed as functional. In general terms: In flow cytometry, cells or beads pass a laser one at a time.
Data set [11] concerns A-375. Briefly: Induction of apoptosis in human A-375 cells at 15 uM measured after 96 hrs by Annexin V-FITC/PI staining based flow cytometric analysis (reference value: 5.6 %). The data set is classed as functional.
Data set [12] concerns ASPC1. Kind of data set: Induction of apoptosis in human ASPC1 cells at 15 uM measured after 96 hrs by Annexin V-FITC/PI staining based flow cytometric analysis (reference value: 6.1 %). The data set is classed as functional.
Data set [13] has as its system BT-549. Kind of data set: Antitumor activity against human BT-549 cells xenografted in po dosed nude mouse assessed as tumor growth inhibition at 75 mg/kg administered once daily measured after 18 days relative to control. Particulars: BT-549, 432 h, time 18 day, read-out: TGI. The data set is classed as functional.
The subject of data set [14] is BT-549. Briefly: Antitumor activity against human BT-549 cells xenografted in po dosed nude mouse assessed as tumor growth inhibition at 125 mg/kg administered once daily measured after 18 days relative to control. It is filed as functional. Particulars: BT-549, 432 h, time 18 day, read-out: TGI.
The test system of data set [15] is A-375. Briefly: Antitumor activity against human A-375 cells xenografted in po dosed nude mouse assessed as tumor growth inhibition at 100 mg/kg administered once daily measured after 21 days relative to control. The data set is classed as functional. The conditions noted are these: A-375, 504 h, time 21 day, read-out: TGI.
Data set [16] concerns MC-38. Briefly: Antitumor activity against mouse MC38 cells implanted in po dosed BALB/c nude mouse assessed as tumor growth inhibition at 100 mg/kg administered once daily measured after 18 days relative to control. The data set is classed as functional. Particulars: MC-38, 432 h, time 18 day, read-out: TGI.
Data set [17] deals with MC-38. Briefly: Antitumor activity against mouse MC38 cells implanted in po dosed C57BL/6J mouse assessed as tumor growth inhibition at 100 mg/kg administered once daily measured after 32 days relative to control. The data set is classed as functional. The conditions noted are these: MC-38, 768 h, time 32 day, read-out: TGI.
Data set [18] in a line: Toxicity in po dosed nude mouse xenografted with human BT-549 cells assessed as change in body weight at 75 to 125 mg/kg administered once daily measured after 18 days. The data set is classed as organism-based. The conditions noted are these: in vivo, 432 h, dose 75-125 mg/kg, time 18 day.
The nature of data set [19]: Toxicity in po dosed nude mouse xenografted with human A-375 cells assessed as change in body weight at 100 mg/kg administered once daily measured after 21 days. The data set is classed as organism-based. The conditions noted are these: in vivo, 504 h, time 21 day.

Sequence of Protein arginine N-methyltransferase 8 (Q9NR22 whole entry): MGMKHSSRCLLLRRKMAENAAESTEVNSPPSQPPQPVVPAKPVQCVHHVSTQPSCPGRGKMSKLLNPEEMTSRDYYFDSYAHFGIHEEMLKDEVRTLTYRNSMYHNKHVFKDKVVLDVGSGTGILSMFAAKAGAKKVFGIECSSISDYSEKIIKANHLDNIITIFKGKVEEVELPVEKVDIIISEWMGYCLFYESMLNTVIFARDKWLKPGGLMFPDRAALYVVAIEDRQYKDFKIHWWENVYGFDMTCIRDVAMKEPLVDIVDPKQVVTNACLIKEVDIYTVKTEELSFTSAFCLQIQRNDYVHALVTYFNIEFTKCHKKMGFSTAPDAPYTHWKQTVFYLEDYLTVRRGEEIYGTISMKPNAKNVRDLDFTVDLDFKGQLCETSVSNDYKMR
Sequence of Protein arginine N-methyltransferase 6 (Q96LA8 whole entry): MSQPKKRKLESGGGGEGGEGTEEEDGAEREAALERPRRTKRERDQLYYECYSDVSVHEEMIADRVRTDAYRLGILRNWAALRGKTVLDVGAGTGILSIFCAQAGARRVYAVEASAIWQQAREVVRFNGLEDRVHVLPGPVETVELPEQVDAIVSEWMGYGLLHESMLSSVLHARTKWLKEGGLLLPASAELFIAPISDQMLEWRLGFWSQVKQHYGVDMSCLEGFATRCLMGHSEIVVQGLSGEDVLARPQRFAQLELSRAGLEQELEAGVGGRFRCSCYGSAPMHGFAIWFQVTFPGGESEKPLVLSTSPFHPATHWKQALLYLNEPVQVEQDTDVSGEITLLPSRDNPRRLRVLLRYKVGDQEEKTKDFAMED

As usually defined, the IC50 is the concentration that inhibits the measured activity by half. For the compound `CNCCNCc1cccc(-c2nc(Nc3ccccc3)c(C)c(-c3c(C)noc3C)n2)c1`, the IC50 in data set [1] was > 1 µM; in data set [2], > 1 µM; in the data set on BT-549 [3] it was 8.8 µM; in the data set on A-375 [4], 5.9 µM; in data set [5] it was 0.49 µM; in [6], 0.92 µM. For the same compound, the IC50 was > 50 µM in data set [7]; > 50 µM in data set [8]; 5.7 µM with MDA-MB-453; 5.5 µM in the data set with SMMC-7721; 12.3 µM in the data set on ASPC1 [9]. The Activity in the data set on BT-549 [10] is 46.1%; with A-375 [11], 44%; in the data set on ASPC1 [12], 17.2%; in [18], “Non-Toxic”; in [19] it was “Non-Toxic”. In addition, the inhibition in vivo at 75 mg/kg with BT-549 [13] turned out to be 38%. Moreover, in the data set with BT-549 [14], the inhibition in vivo at 125 mg/kg amounted to 61.5%. Also, the inhibition in vivo at 100 mg/kg is 69% in the data set with A-375 [15], 23.3% in the data set on MC-38 [16] and 79.6% in the data set on MC-38 [17].
